Experimental data taken from EPA's ToxRefDB 2.

Columns and labels:
rabbit = conditions: Prenatal developmental toxicity study, new zealand white, Oral, Gavage/Intubation, dose end: 18 GD
dog [1] = conditions: Subchronic oral toxicity in nonrodent, beagle, Capsule, dose end: 90 day, group: systemic
rat [2] = conditions: Prenatal developmental toxicity study, sprague dawley, Oral, Gavage/Intubation, dose end: 15 GD
rat [3] = conditions: Subchronic oral toxicity in rodents, sprague dawley, Gavage/Intubation, dose end: 90 day, group: systemic, systemic / organ weight / liver / absolute + systemic / organ weight / liver / relative to body weight + systemic / pathology microscopic / …
dog [4] = conditions: Subchronic oral toxicity in nonrodent, beagle, Capsule, dose end: 90 day, group: systemic, systemic / pathology microscopic / liver / [other] + systemic / pathology microscopic / liver / hypertrophy + systemic / pathology …
rat [5] = conditions: Multigenerational reproductive toxicity study, sprague dawley, Oral, Feed, dose end: 2 generation
rat [6] = conditions: Sub-acute repeat dose toxicity, Sprague Dawley, Oral, Gavage/Intubation, dose end: 28 day
rat [7] = conditions: Multigenerational reproductive toxicity study, sprague dawley, Oral, Feed, dose end: 3 generation
rat [8] = conditions: Subchronic oral toxicity in rodents, other, Feed, dose end: 17 week, group: systemic
rat [9] = conditions: Multigenerational reproductive toxicity study, sprague dawley, Oral, Feed, dose end: 3 generation; remark: listed apart in the source
guinea-pig = conditions: Subchronic dermal toxicity, hartley, Topical, dose end: 13 week, group: systemic, systemic / clinical chemistry / creatine phosphokinase / creatine phosphokinase + systemic / clinical chemistry / lactic acid dehydrogenase…
rat [10] = conditions: Prenatal developmental toxicity study, sprague dawley, Inhalation, Whole-Body, dose end: 15 GD
mouse = conditions: Subchronic oral toxicity in rodents, b6c3f1, Water, dose end: 13 week
rat [11] = conditions: Subchronic oral toxicity in rodents, fischer, Water, dose end: 13 week
rat [12] = conditions: Developmental neurotoxicity study, sprague dawley, Oral, Feed, dose end: 63 PND, group: cannot be grouped
[13] = group: developmental, developmental / developmental malformation / bone / misshapen
[14] = group: maternal, reproductive / reproductive performance / postimplantation loss / postimplantation loss + systemic / in life observation / body weight / …
[15] = systemic / pathology microscopic / liver / cytoplasmic alteration + systemic / pathology microscopic / liver / vacuolization
[16] = systemic / pathology microscopic / liver / cytoplasmic alteration + systemic / pathology microscopic / liver / vacuolization + systemic / …
[17] = group: developmental, systemic / in life observation / body weight / fetal weight
[18] = group: maternal, systemic / in life observation / clinical signs / respiration (rales) + systemic / in life observation / clinical signs / salivation + …
[19] = group: offspring, systemic / hematology / leukocyte (wbc) count differential / leukocyte (wbc) + systemic / hematology / monocytes / monocytes
[20] = group: offspring, systemic / hematology / leukocyte (wbc) count differential / leukocyte (wbc) + systemic / in life observation / body weight / offspring (pup…
[21] = group: parental, systemic / hematology / leukocyte (wbc) count differential / leukocyte (wbc) + systemic / in life observation / body weight / body weight
[22] = group: maternal, reproductive / reproductive performance / estrous cycle / abnormal
[23] = group: systemic, systemic / clinical chemistry / glucose / glucose + systemic / clinical chemistry / luteinizing hormone (lh) / luteinizing hormone (lh) + …
[24] = group: offspring, developmental / developmental landmark / preputial separation / preputial separation + systemic / in life observation / body weight / …
[25] = group: offspring, systemic / in life observation / food consumption / food consumption + systemic / pathology microscopic / kidney / degeneration
[26] = group: parental, systemic / in life observation / food consumption / food consumption + systemic / organ weight / kidney / relative to body weight
[27] = group: parental, systemic / pathology gross / sperm measure / sperm morphology
[28] = group: reproductive, reproductive / offspring survival early / live fetuses / live fetuses
[29] = systemic / in life observation / body weight / body weight gain + systemic / in life observation / food consumption / food consumption + …
[30] = group: offspring, developmental / developmental landmark / vaginal opening / vaginal opening + systemic / in life observation / body weight / offspring (pup) …
[31] = group: parental, systemic / in life observation / body weight / body weight + systemic / organ weight / kidney / relative to body weight + systemic / organ …
[32] = group: parental, systemic / pathology microscopic / kidney / mineralization + systemic / pathology microscopic / kidney / cyst + systemic / pathology …
[33] = group: reproductive, reproductive / offspring survival early / litter size / litter size + reproductive / reproductive performance / estrous cycle / length + …
[34] = group: reproductive, reproductive / reproductive performance / gestational length / gestational length
[35] = group: developmental, developmental / developmental malformation / bone / short + developmental / developmental malformation / bone / wavy + developmental / …
[36] = group: developmental, developmental / developmental malformation / bone / wavy + developmental / developmental malformation / brain / dilated cerebral ventricle…
[37] = group: maternal, reproductive / reproductive performance / resorptions / resorptions
[38] = group: systemic, systemic / organ weight / testes / absolute + systemic / organ weight / testes / relative to body weight + systemic / pathology gross / …
[39] = group: systemic, systemic / pathology gross / sperm measure / sperm count + systemic / pathology gross / sperm measure / sperm motility
[40] = group: systemic, systemic / organ weight / thymus / absolute + systemic / organ weight / thymus / relative to body weight
[41] = reproductive / reproductive performance / resorptions / resorptions + systemic / in life observation / body weight / body weight gain + …
[42] = systemic / in life observation / body weight / fetal weight

Molecule `CCCCCC(C)(CC)C(=O)NC` (centres undefined) [N-Methylneodecanamide] has an LEL (rabbit; [13]) of 200 mg/kg/day, an LOAEL (rabbit; [13]) of 200 mg/kg/day and an NEL (rabbit; [13]) of 100 mg/kg/day. For the same molecule, the NOAEL (rabbit; [13]) was 100 mg/kg/day, the LEL (rabbit; [14]) was 200 mg/kg/day and the LOAEL (rabbit; [14]) was 200 mg/kg/day. The NEL (rabbit; [14]) was 100 mg/kg/day, the NOAEL (rabbit; [14]) was 100 mg/kg/day and the LOAEL (dog [1]; [15]) was 13.5 mg/kg/day. For the same molecule, the NOAEL (dog [1]; [15]) was less than 13.5 mg/kg/day, the LEL (dog [1]; [16]) was 13.5 mg/kg/day and the NEL (dog [1]; [16]) was less than 13.5 mg/kg/day. For the same molecule, the LEL (rat [2]; [17]) was 400 mg/kg/day, the LOAEL (rat [2]; [17]) was 400 mg/kg/day and the NEL (rat [2]; [17]) was 125 mg/kg/day. It also gave an NOAEL (rat [2]; [17]) of 125 mg/kg/day, an LEL (rat [2]; [18]) of 125 mg/kg/day and an LOAEL (rat [2]; [18]) of 125 mg/kg/day. The NEL (rat [2]; [18]) was 40 mg/kg/day, the NOAEL (rat [2]; [18]) was 40 mg/kg/day and the LEL (rat [3]) was 30 mg/kg/day. The LOAEL (rat [3]) was 30 mg/kg/day, the NEL (rat [3]) was 3 mg/kg/day and the NOAEL (rat [3]) was 3 mg/kg/day. The LEL (dog [4]) was 4.52 mg/kg/day, the LOAEL (dog [4]) was 4.52 mg/kg/day and the NEL (dog [4]) was 1.35 mg/kg/day. It also gave an NOAEL (dog [4]) of 1.35 mg/kg/day.
`CC(C)CCCCCCc1ccc(O)cc1` [4-Nonylphenol, branched] showed an LEL (rat [5]; [19]) of 1.25 mg/kg/day, an NEL (rat [5]; [19]) of less than 1.25 mg/kg/day and an LOAEL (rat [5]; [20]) greater than 100 mg/kg/day. For the same molecule, the NOAEL (rat [5]; [20]) was no less than 100 mg/kg/day, the LEL (rat [5]; [21]) was 100 mg/kg/day and the LOAEL (rat [5]; [21]) was greater than 100 mg/kg/day. The NEL (rat [5]; [21]) was 25 mg/kg/day, the NOAEL (rat [5]; [21]) was no less than 100 mg/kg/day and the LEL (rat [6]; [22]) was 250 mg/kg/day. For the same molecule, the LOAEL (rat [6]; [22]) was greater than 250 mg/kg/day, the NEL (rat [6]; [22]) was 50 mg/kg/day and the NOAEL (rat [6]; [22]) was no less than 250 mg/kg/day. The LEL (rat [6]; [23]) was 50 mg/kg/day, the LOAEL (rat [6]; [23]) was greater than 250 mg/kg/day and the NEL (rat [6]; [23]) was 10 mg/kg/day. The NOAEL (rat [6]; [23]) was no less than 250 mg/kg/day, the LOAEL (rat [7]; [24]) was greater than 171 mg/kg/day and the NOAEL (rat [7]; [24]) was no less than 171 mg/kg/day. For the same molecule, the LEL (rat [7]; [25]) was 18 mg/kg/day, the NEL (rat [7]; [25]) was less than 18 mg/kg/day and the LOAEL (rat [7]; [26]) was greater than 122 mg/kg/day. It also gave an NOAEL (rat [7]; [26]) of no less than 122 mg/kg/day, an LEL (rat [7]; [27]) of 18 mg/kg/day and an NEL (rat [7]; [27]) of less than 18 mg/kg/day. The LEL (rat [7]; [28]) was 171 mg/kg/day, the LOAEL (rat [7]; [28]) was greater than 171 mg/kg/day and the NEL (rat [7]; [28]) was 53 mg/kg/day. For the same molecule, the NOAEL (rat [7]; [28]) was no less than 171 mg/kg/day, the LEL (rat [8]; systemic / in life observation / body weight / body weight) was 50 mg/kg/day and the NEL (rat [8]; systemic / in life observation / body weight / body weight + systemic / in life observation / body weight / body weight gain + systemic / …) was 15 mg/kg/day. The LOAEL (rat [8]; [29]) was greater than 150 mg/kg/day, the NOAEL (rat [8]; [29]) was no less than 150 mg/kg/day and the NEL (rat [9]; group: offspring, developmental / developmental landmark / vaginal opening / vaginal opening) was 10 mg/kg/day. The LEL (rat [9]; [30]) was 32.5 mg/kg/day, the LOAEL (rat [9]; [30]) was greater than 100 mg/kg/day and the NOAEL (rat [9]; [30]) was no less than 100 mg/kg/day. For the same molecule, the LOAEL (rat [9]; [31]) was greater than 100 mg/kg/day, the NOAEL (rat [9]; [31]) was no less than 100 mg/kg/day and the LEL (rat [9]; [32]) was 10 mg/kg/day. The NEL (rat [9]; [32]) was less than 10 mg/kg/day, the LOAEL (rat [9]; [33]) was greater than 100 mg/kg/day and the NOAEL (rat [9]; [33]) was no less than 100 mg/kg/day. The LEL (rat [9]; [34]) was 10 mg/kg/day and the NEL (rat [9]; [34]) was less than 10 mg/kg/day.
`COCCO` [2-Methoxyethanol] showed an LEL (guinea-pig) of 1000 mg/kg/day, an LOAEL (guinea-pig) greater than 1000 mg/kg/day and an NEL (guinea-pig) of less than 1000 mg/kg/day. It also gave an NOAEL (guinea-pig) of no less than 1000 mg/kg/day, an LOAEL (rat [10]; [35]) greater than 200 ppm and an NOAEL (rat [10]; [35]) of no less than 200 ppm. The LEL (rat [10]; [36]) was 50 ppm, the NEL (rat [10]; [36]) was less than 50 ppm and the LEL (rat [10]; [37]) was 50 ppm. It also gave an LOAEL (rat [10]; [37]) greater than 200 ppm, an NEL (rat [10]; [37]) of less than 50 ppm and an NOAEL (rat [10]; [37]) of no less than 200 ppm. The LEL (mouse; [22]) was 492 mg/kg/day, the LOAEL (mouse; [22]) was greater than 1840 mg/kg/day and the NEL (mouse; [22]) was less than 492 mg/kg/day. It also gave an NOAEL (mouse; [22]) of no less than 1840 mg/kg/day, an LOAEL (mouse; [38]) of 529 mg/kg/day and an NOAEL (mouse; [38]) of 295 mg/kg/day. It also gave an LEL (mouse; [39]) of 295 mg/kg/day, an NEL (mouse; [39]) of less than 295 mg/kg/day and an LEL (rat [11]; [22]) of 135 mg/kg/day. It also gave an LOAEL (rat [11]; [22]) greater than 785 mg/kg/day, an NEL (rat [11]; [22]) of 70 mg/kg/day and an NOAEL (rat [11]; [22]) of no less than 785 mg/kg/day. For the same molecule, the LOAEL (rat [11]; group: systemic, systemic / in life observation / body weight / body weight + systemic / pathology microscopic / spleen / fibrosis) was 135 mg/kg/day, the NOAEL (rat [11]; group: systemic, systemic / in life observation / body weight / body weight + systemic / pathology microscopic / spleen / fibrosis + systemic / clinical …) was 70 mg/kg/day and the LEL (rat [11]; [40]) was 70 mg/kg/day. For the same molecule, the NEL (rat [11]; [40]) was less than 70 mg/kg/day, the LOAEL (rat [12]; [41]) was greater than 620 mg/kg/day and the NOAEL (rat [12]; [41]) was no less than 620 mg/kg/day. It also gave an LEL (rat [12]; [42]) of 16 mg/kg/day and an NEL (rat [12]; [42]) of less than 16 mg/kg/day.
